According to patent publication US11155576B2, “Synthetic peptides, enzymatic formation of pericellular hydrogels/nanofibrils, and methods of use” (BRANDEIS UNIVERSITY, priority 2014, dated 2021):

What was measured:
[1] = system: MES-SA cells; test: Cell viability assay (MTT), MES-SA; assay type: cell-based; details: 280 μM
Description: (§1) Cells in exponential growth phase were seeded in a 96 well plate at a concentration of 2×10^4 cells/well. The cells were allowed to attach to the wells for 24 hours at 37° C., 5% CO2. The culture medium was removed and 100 μL culture medium containing compounds (immediately diluted from fresh prepared stock solution of 10 mM) at gradient concentrations (0 μM as the control) was placed into each well. After culturing at 37° C., 5% CO2 for 48 hours, each well was added by 10 μL of 5 mg/mL MTT (3-(4,5-dimethylthiazoL-2-yl)-2,5-diphenyltetrazolium bromide), and the plated cells were incubated in the dark for 4 hours. 100 μL 10% SDS with 0.01M HCl was added to each well to stop the reduction reaction and to dissolve the purple. After overnight incubation of the cells at 37° C., the OD at 595 nm of the solution was measured in a microplate reader. Data represent the mean±standard deviation of three independent experiments.

[2] = system: HeLa cells; test: Cell adhesion assay; assay type: cell-based, human; details: 560 μM, trypsinized HeLa cells, at 4 hours
Description: Cells in exponential growth phase were detached using 0.25% trypsin-EDTA. After neutralizing trypsin by addition of complete culture medium, the cells were collected by centrifuge (1000 rpm, 3 min). The cell pellet was suspended by addition of culture medium to a concentration of 4×10^5 cells/mL. 1 mL of the cell suspension was mixed with 1 mL of 2×D-2a or D-2b containing culture media. The resulting solutions were added into 96 well plate at 100 μL/well. After the desired time of incubation at 37° C., 5% CO2, the solution was gently removed, and then 100 μL of culture medium and 10 μL of 5 mg/mL MTT were added to each well. Following 4 hour incubation in the dark, 100 μL of 10% SDS with 0.01M HCl was added to each well to stop the reduction reaction and to dissolve the purple. After incubation of the cells at 37° C. for overnight, the viability was measured. Data represent the mean±standard deviation of three independent experiments.

[3] = system: MES-SA/dx5 cells; test: Pericellular hydrogel/nanonets on MES-SA/dx5 cells (Congo red/DAPI); assay type: cell-based, human; details: 280 μM, 12 hours
Description: (§2) FIG. 11 illustrates overlaid and 3D stacked z-scan images of Congo red and DAPI stained MES-SA and MES-SA/Dx5 cells treated with either 280 μM D-2a (upper panel) or medium alone (control, lower panel) for 12 hours. Scale bar=[…]. White dots outline the cells.
(§3) Cells in exponential growth phase were seeded in a glass bottomed culture chamber at 2×10^4 cells/well. Cells were allowed to attach for 24 hours at 37° C., 5% CO2. The culture medium was removed, and replaced with culture medium containing D-2a at 280 μM. Following 12 hours of incubation, cells were washed 3 times with PBS prior to being stained with 0.1 mg/mL Congo red and 0.6 μM DAPI in PBS buffer (30 minutes at 37° C. in the dark). Next, cells were rinsed three times with PBS, and then kept in PBS for imaging.

[4] = system: MES-SA/Dx5 cells; test: MES-SA/Dx5 tumor model in nude mice; assay type: in vivo; details: subcutaneous and peritumoral, 800 μg dose (~32 mg/kg), 6 times every 3 days
Description: Nine nude mice were used for experiments to define the tumor growth curve. 1×10^7 MES-SA/Dx5 cells were implanted into the mice via […] using a 25 G needle. Three of the tumor-bearing mice were used to define the tumor growth curve with control treatment, and six mice were given D-2a. The mice were injected subcutaneously and peritumorally (6 times, every 3 days starting at Day 1) with either 100 μL of D-2a at 8 μg/μL (800 μg dose or ˜32 mg/kg) in PBS buffer (experimental) or 100 μL of PBS buffer (control). Tumor volume measurements were made every three days, also starting on Day 1. Volume of tumors was measured by caliper.

[5] = system: active Caspase 3; test: Apoptosis pathway assay (ELISA), active Caspase 3; assay type: cell-based, human; details: HeLa cells, 280 μM, at 24 and 32 hours of incubation
Description: The apoptosis pathway was evaluated using the PathScan® Apoptosis Multi-Target Sandwich ELISA Kit (Cell Signaling Technology) following the supplied protocol. Cells in exponential growth phase were seeded in a 6 cm Petri dish at a concentration of 10×10^5 cells/dish (5 dishes). Cells were allowed to attach to the wells for 24 hours at 37° C., 5% CO2. The culture medium was removed and 5 mL medium containing 280 μM D-2a (immediately diluted from fresh prepared stock solution of 11.2 mM) was placed into each dish. At 0, 6, 12, 24, or 32 hours, the medium was removed and cells were washed three times with cold PBS buffer. 0.9 mL lysis buffer was used to lyse cells in each dish, and 0.9 mL of diluents buffer was used to dilute each of the cell lysate. The lysate was incubated in the provided 96 well plate at 4° C. for 24 hours.
ELISA was used to quantify the amount of several key apoptosis signal molecules over time in the HeLa cells incubated with 280 μM D-2a (FIG. 3E).

[6] = system: Ect1/E6E7 cells; test: Confocal microscopy, Congo red/DAPI staining, Ect1/E6E7; assay type: cell-based, human; details: 560 μM, 12 hours
Description: as §3, with “The culture medium was removed, and replaced with culture medium containing D-2a at 280 μM.” left out
Ect1/E6E7 cells (immortalized normal human cervical epithelial cells, which have same tissue and organ origins as HeLa cells) were treated with the same procedure as described for HeLa cells above. […] The difference of hydrogel/nanonets formation by D-2a conversion to D-2b on HeLa cells and Ect1/E6E7 cells agrees with the notion that HeLa cells have higher levels of phosphatase activity than Ect1/E6E7 cells (FIG. 9).

[7] = Cell viability assay (MTT), Ect1/E6E7; assay type: cell-based; details: human, Ect1/E6E7 cells, read-out: Cells remaining viable
Description: as §1

[8] = Cell viability assay (MTT), HeLa; assay type: cell-based, human; details: human, HeLa cells, 48 hour incubation
Description: as §1

[9] = system: MES-SA cells; test: Pericellular hydrogel/nanonets on MES-SA cells (Congo red/DAPI); assay type: cell-based; details: 280 μM, 12 hours
Description: as §2, §3

O=C(Cc1ccc2ccccc2c1)N[C@H](Cc1ccccc1)C(=O)N[C@H](Cc1ccccc1)C(=O)N[C@H](Cc1ccc(OP(=O)(O)O)cc1)C(=O)O [D-2a, Nap-D-Phe-D-Phe-D-Tyr(PO3H2)]
Growth inhibition [1]: inhibits the growth
Cells reattached to surface [2]: less than 5%
Pericellular hydrogel/nanonets formation [3]: forms pericellular hydrogel/nanonets
Day by which statistically significant differences between experimental and control groups were observed [4]: ≤ 13 days
Relative tumor volume / tumor growth [4]: inhibited tumor growth
Amount of active Caspase 3 [5]: increase significantly
Congo red fluorescence on cells [6]: hardly display any red fluorescence
DAPI entry into cells [6]: DAPI stains the nuclei
viability at 48 h, 280 µM [7]: > 60%
viability at 48 h, 280 µM [8]: ~10%
Pericellular hydrogel/nanonets formation [9]: forms pericellular hydrogel/nanonets
